Test results taken from patent US7785807B2, “Voltage-gated, pH-sensitive anion channel and its novel splice variant involved in taste sensation” (Monell Chemical Senses Center, priority 2004, dated 2010).
“Also recorded” adds a separate entry of the source.

What was measured:
Assay type in all cases: cell-based
[1] = target: T1, ClC-4A (Mus musculus, UniProt Q61418); assay: Two-electrode voltage-clamp recording of ClC-4A expressed in Xenopus oocytes, chloride channel inhibitor effect
T1 construct: expressed in transfected cells; host or cells: Xenopus laevis oocytes injected with in vitro transcribed cRNA
T1 sequence (Q61418 61-747): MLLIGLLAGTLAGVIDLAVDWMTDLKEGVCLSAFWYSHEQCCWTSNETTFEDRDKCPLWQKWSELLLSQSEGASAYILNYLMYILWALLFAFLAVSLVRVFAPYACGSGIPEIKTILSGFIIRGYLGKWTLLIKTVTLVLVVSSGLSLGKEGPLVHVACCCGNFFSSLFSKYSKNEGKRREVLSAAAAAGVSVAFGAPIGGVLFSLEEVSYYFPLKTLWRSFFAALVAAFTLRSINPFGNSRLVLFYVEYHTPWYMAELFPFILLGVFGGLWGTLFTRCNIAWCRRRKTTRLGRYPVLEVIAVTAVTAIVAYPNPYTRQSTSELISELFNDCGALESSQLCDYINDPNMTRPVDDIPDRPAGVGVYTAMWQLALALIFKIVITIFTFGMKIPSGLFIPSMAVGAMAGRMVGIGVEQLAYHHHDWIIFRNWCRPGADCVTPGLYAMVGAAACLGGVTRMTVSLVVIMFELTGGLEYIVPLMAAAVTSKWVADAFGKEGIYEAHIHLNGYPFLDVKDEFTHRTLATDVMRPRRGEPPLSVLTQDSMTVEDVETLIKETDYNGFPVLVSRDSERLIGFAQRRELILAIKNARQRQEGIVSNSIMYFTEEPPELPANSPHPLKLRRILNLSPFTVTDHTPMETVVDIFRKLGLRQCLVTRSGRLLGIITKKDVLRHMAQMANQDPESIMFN
Experimental: (§1) ClC-4 and ClC-4A cDNAs were subcloned into the expression vector pCR Blunt II TOPO. Capped sense cRNA was synthesized from the linearized expression constructs by T7 RNA polymerase with nMessage mMachine in vitro transcription kit and tailed with polyA tailing kit (Ambion). The synthesized cRNA products were phenol extracted, ethyl alcohol precipitated, and then dissolved in nuclease-free water at about 0.5 ng/nl for injection. Dumont stage V or VI oocytes were obtained from adult female laboratory bred Xenopus laevis, and their follicles were removed by collagenase digestion. […] Membrane currents were recorded using the two-electrode voltage-clamp technique in ND96 solution (96 mM NaCl, 2 mM KCl, 1.8 mM CaCl2, 1 mM MgCl2, 5 mM Na-HEPES, pH 7.4). […]
(§2) Recording and current-passing micropipettes with tip resistance <5 MΩ when filled with 3 M KCl were pulled from glass capillaries (A-M Systems Inc., Carlsburg, Wash., USA) using a horizontal puller (Suffer P-80/PC). Currents were recorded with a GeneClamp 500 amplifier, digitized with a Digidata 1200 A/D-D/A system, and stored on a computer running pCLAMP 6 software (all from Axon Instruments, Foster City, Calif., USA). […]

[2] = target: T2, human ClC-4 (Homo sapiens, UniProt P51793); assay: Two-electrode voltage-clamp recording of human ClC-4 expressed in Xenopus oocytes, chloride channel inhibitor effect
T2 construct: one clone was isolated, which contained the entire coding region; expressed in transfected cells; host or cells: Xenopus laevis oocytes injected with in vitro transcribed cRNA
T2 sequence (P51793 1-760): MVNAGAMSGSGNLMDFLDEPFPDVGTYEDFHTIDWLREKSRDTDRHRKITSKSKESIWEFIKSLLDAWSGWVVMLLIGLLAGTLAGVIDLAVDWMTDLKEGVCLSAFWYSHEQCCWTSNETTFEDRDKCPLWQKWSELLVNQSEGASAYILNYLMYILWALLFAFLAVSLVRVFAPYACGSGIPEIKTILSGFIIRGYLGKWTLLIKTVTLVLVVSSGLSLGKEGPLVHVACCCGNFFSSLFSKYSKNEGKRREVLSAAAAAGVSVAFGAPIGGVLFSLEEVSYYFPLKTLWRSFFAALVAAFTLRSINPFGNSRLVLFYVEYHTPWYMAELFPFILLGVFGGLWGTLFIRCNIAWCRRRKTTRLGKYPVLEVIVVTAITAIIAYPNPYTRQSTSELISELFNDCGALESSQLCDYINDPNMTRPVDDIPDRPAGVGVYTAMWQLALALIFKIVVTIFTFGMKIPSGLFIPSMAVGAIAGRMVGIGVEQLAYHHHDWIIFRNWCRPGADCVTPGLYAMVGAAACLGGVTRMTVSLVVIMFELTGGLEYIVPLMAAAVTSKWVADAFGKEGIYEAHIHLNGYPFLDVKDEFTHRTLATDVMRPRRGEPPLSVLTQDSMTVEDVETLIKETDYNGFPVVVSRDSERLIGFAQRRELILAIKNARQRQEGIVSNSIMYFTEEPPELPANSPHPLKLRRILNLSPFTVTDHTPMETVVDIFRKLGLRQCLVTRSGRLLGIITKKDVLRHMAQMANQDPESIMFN
Experimental: as §1, §2

[3] = target: T3, mouse ClC-4 (Mus musculus, UniProt Q61418); assay: Two-electrode voltage-clamp recording of mouse ClC-4 expressed in Xenopus oocytes, chloride channel inhibitor effect
T3 construct: a pair of PCR primers was designed to encompass the entire coding region; expressed in transfected cells; host or cells: Xenopus laevis oocytes injected with in vitro transcribed cRNA
T3 sequence (Q61418 1-747): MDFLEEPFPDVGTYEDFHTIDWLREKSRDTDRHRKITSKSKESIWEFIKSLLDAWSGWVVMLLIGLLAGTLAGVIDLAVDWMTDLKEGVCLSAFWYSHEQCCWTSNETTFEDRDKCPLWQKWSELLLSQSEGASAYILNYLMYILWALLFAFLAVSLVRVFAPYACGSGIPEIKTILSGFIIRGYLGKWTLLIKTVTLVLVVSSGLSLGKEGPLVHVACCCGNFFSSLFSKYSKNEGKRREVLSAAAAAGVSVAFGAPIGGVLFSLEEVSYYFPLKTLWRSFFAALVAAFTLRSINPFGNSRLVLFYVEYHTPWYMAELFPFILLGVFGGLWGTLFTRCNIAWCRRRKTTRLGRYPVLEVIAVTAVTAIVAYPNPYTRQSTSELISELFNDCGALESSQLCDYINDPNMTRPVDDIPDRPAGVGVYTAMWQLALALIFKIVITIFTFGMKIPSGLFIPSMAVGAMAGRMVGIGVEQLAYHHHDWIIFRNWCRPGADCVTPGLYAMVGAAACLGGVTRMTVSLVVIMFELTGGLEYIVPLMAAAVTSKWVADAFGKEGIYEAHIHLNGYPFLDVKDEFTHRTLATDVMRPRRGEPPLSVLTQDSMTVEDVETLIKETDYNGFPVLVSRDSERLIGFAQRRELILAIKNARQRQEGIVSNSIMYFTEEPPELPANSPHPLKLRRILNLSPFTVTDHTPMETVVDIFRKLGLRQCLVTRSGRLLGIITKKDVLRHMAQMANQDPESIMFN
Experimental: as §1, §2

[4] = 0.3 mM NFA, pH 7.4, Xenopus oocytes
[5] = 0.1 mM NPPB, optimal pH, Xenopus oocytes

O=C(O)c1cccnc1Nc1cccc(C(F)(F)F)c1 [NFA, niflumic acid]
inhibition on ion channel conductance ([1]; 0.3 mM NFA, pH 5.5, Xenopus oocytes): significantly inhibited | inhibition on ion channel conductance [2, 4]: only a slight inhibitory effect | inhibition on ion channel conductance [3, 4]: only a slight inhibitory effect

O=C(O)c1cc([N+](=O)[O-])ccc1NCCCc1ccccc1 [NPPB, 5-nitro-2-(3-phenylpropylamino)-benzoic acid]
inhibition on ion channel conductance [1, 5]: slightly inhibit; also recorded: inhibited | inhibition on ion channel conductance [2, 5]: no apparent effect | inhibition on ion channel conductance [3, 5]: no apparent effect
